Reference: PubChem BioAssay AID1259407 (Chemical Carcinogenesis Research Information System (CCRIS), 2018)
Active and inactive are the calls of the source. How the calls were made is not given here.

Test system: CCRIS mutagenicity, Ames/micronucleus/aberration tests
Test: CCRIS mutagenicity studies
[1] = Test System: AMES SALMONELLA TYPHIMURIUM, Strain/Indicator: TA97, Metabolic Activation: HAMSTER, LIVER, S-9, AROCLOR 1254 (10%), Method: PREINCUBATION
[2] = Test System: AMES SALMONELLA TYPHIMURIUM, Strain/Indicator: TA97, Metabolic Activation: NONE, Method: PREINCUBATION
[3] = Test System: AMES SALMONELLA TYPHIMURIUM, Strain/Indicator: TA97, Metabolic Activation: RAT, LIVER, S-9, AROCLOR 1254 (10%), Method: PREINCUBATION
[4] = Test System: AMES SALMONELLA TYPHIMURIUM, Strain/Indicator: TA98, Metabolic Activation: HAMSTER, LIVER, S-9, AROCLOR 1254 (10%), Method: PREINCUBATION
[5] = Test System: AMES SALMONELLA TYPHIMURIUM, Strain/Indicator: TA98, Metabolic Activation: NONE, Method: PREINCUBATION
[6] = Test System: AMES SALMONELLA TYPHIMURIUM, Strain/Indicator: TA98, Metabolic Activation: RAT, LIVER, S-9, AROCLOR 1254 (10%), Method: PREINCUBATION
[7] = Test System: AMES SALMONELLA TYPHIMURIUM, Strain/Indicator: TA100, Metabolic Activation: NONE, Method: PREINCUBATION
[8] = Test System: AMES SALMONELLA TYPHIMURIUM, Strain/Indicator: TA1535, Metabolic Activation: HAMSTER, LIVER, S-9, AROCLOR 1254 (10%), Method: PREINCUBATION
[9] = Test System: AMES SALMONELLA TYPHIMURIUM, Strain/Indicator: TA1535, Metabolic Activation: NONE, Method: PREINCUBATION
[10] = Test System: AMES SALMONELLA TYPHIMURIUM, Strain/Indicator: TA1535, Metabolic Activation: RAT, LIVER, S-9, AROCLOR 1254 (10%), Method: PREINCUBATION

NCCCCCCCCCCC(=O)O
mutagenic call (End Point: IN VITRO CHROMOSOMAL ABERRATIONS, Test System: CHINESE HAMSTER OVARY CELLS, Metabolic Activation: NONE): inactive; negative; precipitation occurred at 1000 ug/ml
mutagenic call (End Point: IN VITRO CHROMOSOMAL ABERRATIONS, Test System: CHINESE HAMSTER OVARY CELLS, Metabolic Activation: RAT, LIVER, S-9, AROCLOR 1254): inactive; negative; precipitation occurred at 1000 ug/ml
mutagenic call (Test System: UDS RAT HEPATOCYTES, Strain/Indicator: BROMODEOXYURIDINE INCORP, Metabolic Activation: NONE, Method: FLOW CYTOMETRIC ANALYSIS): inactive; negative

CCC(C)(C)c1ccc(O)cc1
mutagenic call [1]: inactive; negative
mutagenic call (Test System: AMES SALMONELLA TYPHIMURIUM, Strain/Indicator: TA97, Metabolic Activation: HAMSTER, LIVER, S-9, AROCLOR 1254 (30%), Method: PREINCUBATION): inactive; negative
mutagenic call [2]: inactive; negative
mutagenic call [3]: inactive; negative
mutagenic call (Test System: AMES SALMONELLA TYPHIMURIUM, Strain/Indicator: TA97, Metabolic Activation: RAT, LIVER, S-9, AROCLOR 1254 (30%), Method: PREINCUBATION): inactive; negative
mutagenic call [4]: inactive; negative
mutagenic call (Test System: AMES SALMONELLA TYPHIMURIUM, Strain/Indicator: TA98, Metabolic Activation: HAMSTER, LIVER, S-9, AROCLOR 1254 (30%), Method: PREINCUBATION): inactive; negative
mutagenic call [5]: inactive; negative
mutagenic call [6]: inactive; negative
mutagenic call (Test System: AMES SALMONELLA TYPHIMURIUM, Strain/Indicator: TA98, Metabolic Activation: RAT, LIVER, S-9, AROCLOR 1254 (30%), Method: PREINCUBATION): inactive; negative
mutagenic call (Test System: AMES SALMONELLA TYPHIMURIUM, Strain/Indicator: TA100, Metabolic Activation: HAMSTER, LIVER, S-9, AROCLOR 1254 (10%), Method: PREINCUBATION): inactive; negative
mutagenic call (Test System: AMES SALMONELLA TYPHIMURIUM, Strain/Indicator: TA100, Metabolic Activation: HAMSTER, LIVER, S-9, AROCLOR 1254 (30%), Method: PREINCUBATION): inactive; negative
mutagenic call [7]: inactive; negative
mutagenic call (Test System: AMES SALMONELLA TYPHIMURIUM, Strain/Indicator: TA100, Metabolic Activation: RAT, LIVER, S-9, AROCLOR 1254 (10%), Method: PREINCUBATION): inactive; negative
mutagenic call (Test System: AMES SALMONELLA TYPHIMURIUM, Strain/Indicator: TA100, Metabolic Activation: RAT, LIVER, S-9, AROCLOR 1254 (30%), Method: PREINCUBATION): inactive; negative
mutagenic call [8]: inactive; negative
mutagenic call (Test System: AMES SALMONELLA TYPHIMURIUM, Strain/Indicator: TA1535, Metabolic Activation: HAMSTER, LIVER, S-9, AROCLOR 1254 (30%), Method: PREINCUBATION): inactive; negative
mutagenic call [9]: inactive; negative
mutagenic call [10]: inactive; negative
mutagenic call (Test System: AMES SALMONELLA TYPHIMURIUM, Strain/Indicator: TA1535, Metabolic Activation: RAT, LIVER, S-9, AROCLOR 1254 (30%), Method: PREINCUBATION): inactive; negative

C/C=C/c1cc(OC)c(OC)cc1OC
mutagenic call (Test System: AMES SALMONELLA TYPHIMURIUM, Strain/Indicator: TA97, Metabolic Activation: NONE, Method: STANDARD PLATE): inactive; negative
mutagenic call (Test System: AMES SALMONELLA TYPHIMURIUM, Strain/Indicator: TA97, Metabolic Activation: RAT, LIVER, S-9, AROCLOR 1254, Method: STANDARD PLATE): inactive; negative
mutagenic call (Test System: AMES SALMONELLA TYPHIMURIUM, Strain/Indicator: TA98, Metabolic Activation: NONE, Method: STANDARD PLATE): inactive; negative
mutagenic call (Test System: AMES SALMONELLA TYPHIMURIUM, Strain/Indicator: TA98, Metabolic Activation: RAT, LIVER, S-9, AROCLOR 1254, Method: STANDARD PLATE): inactive; negative
mutagenic call (Test System: AMES SALMONELLA TYPHIMURIUM, Strain/Indicator: TA100, Metabolic Activation: NONE): inactive; negative
mutagenic call (Test System: AMES SALMONELLA TYPHIMURIUM, Strain/Indicator: TA100, Metabolic Activation: NONE, Method: STANDARD PLATE): inactive; negative
mutagenic call (Test System: AMES SALMONELLA TYPHIMURIUM, Strain/Indicator: TA100, Metabolic Activation: RAT, LIVER, S-9, AROCLOR 1254, Method: STANDARD PLATE): inactive; negative
mutagenic call (Test System: AMES SALMONELLA TYPHIMURIUM, Strain/Indicator: TA100, Metabolic Activation: S-9): active; positive
mutagenic call (Test System: AMES SALMONELLA TYPHIMURIUM, Strain/Indicator: TA1535, Metabolic Activation: NONE, Method: STANDARD PLATE): active; positive
mutagenic call (Test System: AMES SALMONELLA TYPHIMURIUM, Strain/Indicator: TA1535, Metabolic Activation: RAT, LIVER, S-9, AROCLOR 1254, Method: STANDARD PLATE): inactive; negative
mutagenic call (Test System: AMES SALMONELLA TYPHIMURIUM, Strain/Indicator: TA1537, Metabolic Activation: NONE, Method: STANDARD PLATE): inactive; negative
mutagenic call (Test System: AMES SALMONELLA TYPHIMURIUM, Strain/Indicator: TA1537, Metabolic Activation: RAT, LIVER, S-9, AROCLOR 1254, Method: STANDARD PLATE): inactive; negative
mutagenic call (Test System: AMES SALMONELLA TYPHIMURIUM, Strain/Indicator: TA1538, Metabolic Activation: NONE, Method: STANDARD PLATE): inactive; negative
mutagenic call (Test System: AMES SALMONELLA TYPHIMURIUM, Strain/Indicator: TA1538, Metabolic Activation: RAT, LIVER, S-9, AROCLOR 1254, Method: STANDARD PLATE): inactive; negative
mutagenic call (Test System: UDS RAT HEPATOCYTES, Strain/Indicator: THY INCORP, Metabolic Activation: NONE, Method: LIQUID SCINTILLATION COUNTING): active; positive

O=CC(Cl)(Cl)Cl
mutagenic call [1]: inactive; negative
mutagenic call [2]: inactive; negative
mutagenic call [3]: inactive; negative
mutagenic call [4]: inactive; negative
mutagenic call [5]: inactive; negative
mutagenic call [6]: inactive; negative
mutagenic call (Test System: AMES SALMONELLA TYPHIMURIUM, Strain/Indicator: TA100, Metabolic Activation: HAMSTER, LIVER, S-9, AROCLOR 1254 (5, 10 OR 30%), Method: PREINCUBATION): inactive; negative
mutagenic call (Test System: AMES SALMONELLA TYPHIMURIUM, Strain/Indicator: TA100, Metabolic Activation: RAT, LIVER, S-9, AROCLOR 1254 (5, 10 OR 30%), Method: PREINCUBATION): inactive; negative
mutagenic call (Test System: AMES SALMONELLA TYPHIMURIUM, Strain/Indicator: TA100, Metabolic Activation: RAT, LIVER, S-9, Method: PREINCUBATION): active; positive
mutagenic call [8]: inactive; negative
mutagenic call [9]: inactive; negative
mutagenic call [10]: inactive; negative

O=[N+]([O-])c1ccc(/C=C/c2ccc([N+](=O)[O-])cc2S(=O)(=O)O)c(S(=O)(=O)O)c1
mutagenic call [5]: inactive; negative
mutagenic call (Test System: AMES SALMONELLA TYPHIMURIUM, Strain/Indicator: TA98, Metabolic Activation: RAT LIVER S-9, PHENOBARBITAL AND BETA-NAPHTHOFLAVONE, Method: PREINCUBATION): inactive; negative
mutagenic call [7]: inactive; negative
mutagenic call (Test System: AMES SALMONELLA TYPHIMURIUM, Strain/Indicator: TA100, Metabolic Activation: RAT LIVER S-9, PHENOBARBITAL AND BETA-NAPHTHOFLAVONE, Method: PREINCUBATION): inactive; negative
mutagenic call [9]: inactive; negative
mutagenic call (Test System: AMES SALMONELLA TYPHIMURIUM, Strain/Indicator: TA1535, Metabolic Activation: RAT LIVER S-9, PHENOBARBITAL AND BETA-NAPHTHOFLAVONE, Method: PREINCUBATION): inactive; negative
mutagenic call (Test System: AMES SALMONELLA TYPHIMURIUM, Strain/Indicator: TA1537, Metabolic Activation: NONE, Method: PREINCUBATION): inactive; negative
mutagenic call (Test System: AMES SALMONELLA TYPHIMURIUM, Strain/Indicator: TA1537, Metabolic Activation: RAT LIVER S-9, PHENOBARBITAL AND BETA-NAPHTHOFLAVONE, Method: PREINCUBATION): inactive; negative
mutagenic call (Test System: E.COLI, Strain/Indicator: WP2UVRA/PKM101, Metabolic Activation: NONE, Method: PREINCUBATION): inactive; negative
mutagenic call (Test System: E.COLI, Strain/Indicator: WP2UVRA/PKM101, Metabolic Activation: RAT LIVER S-9, PHENOBARBITAL AND BETA-NAPHTHOFLAVONE, Method: PREINCUBATION): inactive; negative
